Test results reported in patent US20180000085A1, “USE OF PICOLINAMIDE COMPOUNDS WITH FUNGICIDAL ACTIVITY” (DOW AGROSCIENCES LLC, priority 2014, published 2018).

Key:
Format in all cases: in vivo
Phakopsora pachyrhizi = experiment: Asian soybean rust (PHAKPA) disease control; parameters: key: A: > 80; B: ≤ 80; C: Not Tested; D: No Activity Observed in the Reported Assay; settings: 25 ppm; for PHAKPA disease control, 1DP: 1 Day Protectant; for PHAKPA disease control, 3DC: 3 Day Curative
Zymoseptoria tritici = experiment: Leaf blotch of wheat (SEPTTR) disease control on wheat seedlings; parameters: key to SEPTTR 1DP, HV activity at 100 ppm (% control rating) / SEPTTR 3DC, HV activity at 100 ppm (% control rating) / SEPTTR disease control, 1DP / SEPTTR disease control, 3DC / SEPTTR 1DP disease control rating, HV activity / SEPTTR 3DC disease control rating, HV activity / SEPTTR 3DC, LV activity at 125.1 g/H (% Control rating) / SEPTTR 1DP, LV activity at 125.1 g/H (% Control rating) / SEPTTR 1DP disease control rating, LV activity at 125.1 g/H / SEPTTR 3DC disease control rating, LV activity at 125.1 g/H / SEPTTR 3DC disease control rating, HV activity at 100 ppm / SEPTTR 1DP disease control rating, HV activity at 100 ppm / HV activity at 100 ppm SEPTTR 3DC (disease control rating) / HV activity at 100 ppm SEPTTR 1DP (disease control rating) / LV activity at 125.1 g/H SEPTTR 1DP (disease control rating) / LV activity at 125.1 g/H SEPTTR 3DC (disease control rating): A: > 80; B: ≤ 80; C: Not Tested; D: No Activity Observed in the Reported Assay; settings: for SEPTTR 1DP, LV activity at 125.1 g/H (% Control rating) / SEPTTR 3DC, LV activity at 125.1 g/H (% Control rating) / SEPTTR 1DP disease control rating, LV activity at 125.1 g/H / SEPTTR 3DC disease control rating, LV activity at 125.1 g/H: low volume application; for SEPTTR 1DP disease control rating, LV activity at 125.1 g/H: 1 day protectant; for SEPTTR 3DC disease control rating, LV activity at 125.1 g/H: 3 day curative
Puccinia triticina = experiment: Wheat brown rust (PUCCRT) disease control on wheat seedlings; settings: for PUCCRT 1DP, LV activity at 125.1 g/H (% Control rating) / PUCCRT 3DC, LV activity at 125.1 g/H (% Control rating) / PUCCRT 1DP disease control rating, LV activity at 125.1 g/H / PUCCRT 3DC disease control rating, LV activity at 125.1 g/H: low volume application; for PUCCRT 1DP disease control rating, LV activity at 125.1 g/H: 1 day protectant; for PUCCRT 3DC disease control rating, LV activity at 125.1 g/H: 3 day curative

SMILES | PHAKPA disease control, 1DP (Phakopsora pachyrhizi) | PHAKPA disease control, 3DC (Phakopsora pachyrhizi) | SEPTTR 1DP, LV activity at 125.1 g/H (% Control rating) (Zymoseptoria tritici; 1 Day Protectant) | SEPTTR 3DC, LV activity at 125.1 g/H (% Control rating) (Zymoseptoria tritici; 3 Day Curative) | PUCCRT 1DP, LV activity at 125.1 g/H (% Control rating) (Puccinia triticina; 1 Day Protectant) | PUCCRT 3DC, LV activity at 125.1 g/H (% Control rating) (Puccinia triticina; 3 Day Curative) | SEPTTR 1DP disease control rating, LV activity at 125.1 g/H (Zymoseptoria tritici) | SEPTTR 3DC disease control rating, LV activity at 125.1 g/H (Zymoseptoria tritici) | PUCCRT 1DP disease control rating, LV activity at 125.1 g/H (Puccinia triticina) | PUCCRT 3DC disease control rating, LV activity at 125.1 g/H (Puccinia triticina) | HV activity at 100 ppm SEPTTR 1DP (disease control rating) (Zymoseptoria tritici; HV application, 100 ppm, 1 Day Protectant, wheat leaf blotch) | HV activity at 100 ppm SEPTTR 3DC (disease control rating) (Zymoseptoria tritici; HV application, 100 ppm, 3 Day Curative, wheat leaf blotch) | HV activity at 100 ppm PUCCRT 1DP (disease control rating) (Puccinia triticina; HV application, 100 ppm, 1 Day Protectant, wheat brown rust) | HV activity at 100 ppm PUCCRT 3DC (disease control rating) (Puccinia triticina; HV application, 100 ppm, 3 Day Curative, wheat brown rust)
CCC(CC)[C@@H](OCC(C)C)[C@H](C)OC(=O)[C@H](C)NC(=O)c1nccc(OC)c1OCOC(C)=O [Cmpd 554] | A (> 80) | B (≤ 80) | B (≤ 80) | A (> 80) | A (> 80) | A (> 80) |  |  |  |  |  |  |  | 
CCC(CC)[C@H](Oc1ccc(Cl)cc1Cl)[C@H](C)OC(=O)[C@H](C)NC(=O)c1nccc(OC)c1OCOC(C)=O [Cmpd 670] | B (≤ 80) | B (≤ 80) |  |  |  |  | A (> 80) | A (> 80) | A (> 80) | A (> 80) |  |  |  | 
COc1ccnc(C(=O)NC(C)C(=O)OC(C)C(Oc2ccccc2)C2CCCCC2)c1OC(C)=O (centres unmarked) [Cmpd 908] | A (> 80) | B (≤ 80) |  |  |  |  | A (> 80) | A (> 80) | A (> 80) | A (> 80) |  |  |  | 
COc1ccnc(C(=O)NC(C)C(=O)OC(C)C(OCC(C)C)C2CCCC2)c1OCOC(C)=O (centres unmarked) [Cmpd 915] | A (> 80) | B (≤ 80) |  |  |  |  | B (≤ 80) | A (> 80) | A (> 80) | A (> 80) |  |  |  | 
COc1ccnc(C(=O)N[C@@H](C)C(=O)O[C@@H](C)[C@H](Oc2cc(F)ccc2F)C(C)C)c1OC(C)=O [Cmpd 627] | B (≤ 80) | B (≤ 80) | B (≤ 80) | A (> 80) | A (> 80) | A (> 80) |  |  |  |  |  |  |  | 
C=CC(C)C(Oc1ccccc1)C(C)OC(=O)C(C)NC(=O)c1nccc(OC)c1OC(C)=O (centres unmarked) [Cmpd 693] | A (> 80) | B (≤ 80) |  |  |  |  | B (≤ 80) | A (> 80) | A (> 80) | A (> 80) |  |  |  | 
CCC(CC)[C@@H](Oc1ccccc1)[C@H](C)OC(=O)CNC(=O)c1nccc(OC)c1OC(C)=O [Cmpd 480] | B (≤ 80) | B (≤ 80) | B (≤ 80) | B (≤ 80) | A (> 80) | A (> 80) |  |  |  |  |  |  |  | 
CCC(CC)[C@@H](Oc1cc(F)cc(Cl)c1)[C@H](C)OC(=O)[C@H](C)NC(=O)c1nccc(OC)c1OCOC(C)=O [Cmpd 592] | A (> 80) | A (> 80) | A (> 80) | A (> 80) | A (> 80) | A (> 80) |  |  |  |  |  |  |  | 
COc1ccnc(C(=O)NC(C)C(=O)OC(C)C(Oc2ccc(C)cc2)C2CCCC2)c1OCOC(C)=O (centres unmarked) [Cmpd 916] | A (> 80) | D |  |  |  |  | A (> 80) | B (≤ 80) | A (> 80) | A (> 80) |  |  |  | 
COc1ccnc(C(=O)N[C@@H](C)C(=O)O[C@@H](C)[C@H](Oc2cccc(Cl)c2)C2CCCC2)c1OCOC(C)=O [Cmpd 911, (S)-(1R,2S)-1-(3-chlorophenoxy)-1-cyclopentylpropan-2-yl-2-(3-(acetoxymethoxy)-4-methoxypicolinamido)propanoate] | A (> 80) | B (≤ 80) |  |  |  |  | A (> 80) | A (> 80) | A (> 80) | A (> 80) |  |  |  | 
COc1ccnc(C(=O)NC(C)C(=O)OC(C)C(Oc2ccc(F)cc2)C2CCCC2)c1OCOC(C)=O (centres unmarked) [Cmpd 910] | A (> 80) | B (≤ 80) |  |  |  |  | A (> 80) | A (> 80) | A (> 80) | A (> 80) |  |  |  | 
COCC[C@H](Cc1ccc(F)cc1)[C@@H](Oc1ccccc1)[C@H](C)OC(=O)[C@H](C)NC(=O)c1nccc(OC)c1OCOC(C)=O [Cmpd 498] | A (> 80) | B (≤ 80) | A (> 80) | A (> 80) | A (> 80) | A (> 80) |  |  |  |  |  |  |  | 
COc1ccnc(C(=O)N[C@@H](C)C(=O)O[C@@H](C)[C@H](Oc2ccccc2)c2ccccc2)c1OC(C)=O [Cmpd 501] | B (≤ 80) | B (≤ 80) | A (> 80) | A (> 80) | A (> 80) | A (> 80) |  |  |  |  |  |  |  | 
COc1ccnc(C(=O)N[C@@H](C)C(=O)O[C@@H](C)[C@H](Oc2ccc(F)cc2)C(C)C)c1OC(C)=O [Cmpd 626] | A (> 80) | B (≤ 80) | A (> 80) | A (> 80) | A (> 80) | A (> 80) |  |  |  |  |  |  |  | 
COc1ccnc(C(=O)N[C@@H](C)C(=O)O[C@@H](C)[C@H](Oc2cccc(F)c2)C(C)C)c1OCOC(C)=O [Cmpd 614] | A (> 80) | A (> 80) | B (≤ 80) | A (> 80) | A (> 80) | A (> 80) |  |  |  |  |  |  |  | 
COc1ccnc(C(=O)N[C@@H](C)C(=O)O[C@@H](C)[C@H](Oc2cccc(Cl)c2)C2CCCC2)c1OC(C)=O [Cmpd 920, (S)-(1R,2S)-1-(3-chlorophenoxy)-1-cyclopentylpropan-2-yl-2-(3-acetoxy-4-methoxypicolinamido)propanoate] | B (≤ 80) | B (≤ 80) |  |  |  |  | A (> 80) | A (> 80) | A (> 80) | A (> 80) |  |  |  | 
CCCO[C@H](c1ccccc1)[C@H](C)OC(=O)[C@H](C)NC(=O)c1nccc(OC)c1OC(C)=O [Cmpd 884] | A (> 80) | D |  |  |  |  | B (≤ 80) | A (> 80) | A (> 80) | A (> 80) |  |  |  | 
Cc1ccc(O[C@H](CC(C)C)[C@H](C)OC(=O)[C@H](C)NC(=O)c2ncccc2O)c(Cl)c1 [Cmpd 1038] |  |  |  |  |  |  |  |  |  |  | D | B (≤ 80) | A (> 80) | B (≤ 80)
COc1ccnc(C(=O)NC(C)C(=O)OC(C)C(Oc2cccc(C(F)(F)F)c2)C(C)C)c1OC(C)=O (centres unmarked) [Cmpd 858] |  |  |  |  |  |  | B (≤ 80) | A (> 80) | A (> 80) | A (> 80) |  |  |  | 
